The source of these data is patent US12319752B2, “Heparin-binding cationic peptide self-assembling peptide amphiphiles useful against drug-resistant bacteria” (priority 2016, dated 2025).

The structures appear in SMILES notation. In brackets after ≈: the same amount, converted by molar mass. Residues, ends and D or L forms follow the SMILES beside them. *: point of attachment. Palmitoyl = CCCCCCCCCCCCCCCC(=O)* Bounds are passed on as bounds.

The subject of data set [1] is MDR E. coli. Kind of data set: Bacterial growth inhibition (growth curves, OD562, 20 h). Type of data set: cell-based, multidrug-resistant E. coli (MDR E. coli, ATCC #BAA-2471). The procedure: (§1) Gram-positive (S. aureus and MRSA) and Gram-negative (E. coli and MDR E. coli) bacteria were incubated with peptide concentrations ranging from 20 to 100 μM, and time-lapsed bacterial growth was monitored for 20 hours by determining the optical density at 562 nm (O.D. 562 nm). […] At the highest concentration tested (100 μM), the time to exponential growth phase of S. aurues was delayed by about 18 h (FIG. 5B), and was prolonged by almost 13 h for MRSA (FIG. 5A), while bacteria incubated without ACA-PA entered the exponential growth phase within 4 h. Gram-positive bacteria were also susceptible to the ACA-PA even below their CMC.
The MIC values of ACA-PA towards drug-resistant bacteria were determined after 24 h of incubation (Table 2).
(§2) This assay was performed to investigate the inhibitory effects of each peptide against Gram-positive Staphylococcus aureus (S. aureus, ATCC #25923) and methicillin-resistant S. aureus (MRSA, ATCC #43300), as well as Gram-negative Escherichia coli (E. coli, ATCC #25922), and multidrug-resistant E. coli (MDR E. coli, ATCC #BAA-2471). In all experiments, solutions of each peptide at the concentrations from 20 μM to 100 μM in 3% Tryptic Soy Broth (TSB) media were freshly prepared. A single colony of bacteria was isolated from a stock agar plate and cultured overnight in 4 mL of 3% TSB on a shaking incubator set at 200 rpm and 37° C. The bacteria culture was adjusted to an optical density at 562 nm (OD562) to about 0.52 (10^9 cells/mL), and the resulting bacteria suspension was subsequently diluted to about 10^6 colony forming units (CFU) per mL in each sample. The control samples were bacteria incubated in TSB media without peptides. The bacteria were incubated inside a spectrophotometer (Spectra-Max Paradigm, Molecular Devices, Sunnyvale, CA) at 37° C. under static conditions for 20 h, and the bacterial growth curves were measured in terms of turbidity at OD562 every 2 minutes. The normalized OD562 values of samples were calculated by subtracting the […].

The test system of data set [2] is MDR E. coli. Kind of data set: Live/dead bacterial viability assay. Type of data set: cell-based, multidrug-resistant E. coli (MDR E. coli). The settings on record: 4 h. From the text:
To further investigate bacteria viability after treatment with ACA-PA, the live/dead assay was used to confirm the antibacterial actions of ACA-PA. Dead bacteria with disrupted membrane were stained a first color, whereas live bacteria were stained with a second color fluorescence. A large amount of robust MRSA bacteria in the untreated control sample appeared a second color and in spherical shapes (FIG. 10A). […] This antibacterial activity was dependent on the concentration of PA, yet was not determined by peptide self-assembly. Nonetheless, Gram-negative MDR E. coli responded to the treatment of ACA-PA differently from Gram-positive MRSA.
The live/dead bacterial viability assay was conducted to further assess the bactericidal efficacy of ACA-PA using the LIVE/DEAD BacLight Bacterial Viability Kits (Kits 71007, Molecular Probes, Eugene, OR, USA). MRSA and MDR E. coli bacteria (100 μl, 10^6 CFU/mL) were incubated with 80 μM and 40 μM of peptide in 3% TSB media at 37° C. for 4 h on a 96-well plate, and the control samples of bacteria were incubated in 3% TSB media only. […] The live bacteria stained fluorescent a second color (SYTO9 nucleic acid stain), whereas the dead bacteria with disrupted membranes stained fluorescent a first color (propidium iodide, PI).

Data set [3] deals with S. aureus. Kind of data set: Bacterial growth inhibition (growth curves, OD562, 20 h). It counts as cell-based, Staphylococcus aureus (ATCC #25923). The procedure:
as §1, §2

Data set [4] has as its system human dermal fibroblasts (HDF). The data set is described as follows: Cytotoxicity, MTS cell viability assay. Type of data set: cell-based. The procedure:
(§3) To evaluate the cytotoxicity of the peptides, human dermal fibroblasts (HDF) were treated for 24 h, and cell viability was determined via MTS assays (FIG. 13).
(§4) Human dermal fibroblast cells (HDF, Detroit 551, ATCC #CCL-110) were cultured in Dulbecco's modified Eagle medium (DMEM; Fisher, Pittsburgh, PA) supplemented with 10% fetal bovine serum (FBS) and 1% penicillin/streptomycin for 24 h. All cells were cultured to 90% confluence in a 37° C., humidified, 5% CO2/95% air environment. Cells at passage numbers of 4-7 were used in these experiments.
(§5) The MTS cell viability assay kit (Promega, Madison, WI, USA) was used to determine cytotoxicity of the peptides. First, HDF cells were seeded on a 96-well plate at a cell density of 5,000 cells/well (equal to 15,385 cells/cm^2), and were incubated overnight for cell adhesion. After overnight incubation, the cell medium in each well was replaced by 100 μL of cell culture medium containing various concentrations of peptides (20 μM to 100 μM). The control samples were cells incubated in cell culture medium only. After 24 h, the treatment medium in each well was removed. The cells were washed with phosphate buffered saline (PBS, pH=7.4, Fisher, PA, USA) and 100 μL of fresh cell culture medium was added to each well, followed by the addition of 20 μL of the MTS reagent. After the cells were incubated for 2.5 h, the absorbance was measured at a wavelength of 490 nm by a spectrophotometer (SpectraMax M3, Molecular Devices, Molecular Devices, Sunnyvale, CA, USA). To estimate the cell numbers in each well, a standard curve expressing the linear correlation between different cell densities and optical densities (R^2>0.95) was plotted, and the cell numbers were determined with this standard curve from the OD490 value recorded in each sample. The cell viability of each sample was calculated by: Cell viability=[(cell density per mL of treated sample)/(cell density per mL of control sample)]×100%. Data were expressed by standard error of the mean (±S.E.M.) and N=3, *p<0.05 compared with control samples.

The nature of data set [5]: Cytotoxicity, MTS cell viability assay. It counts as cell-based, human. The settings on record: human, human dermal fibroblasts (HDF, Detroit 551, ATCC CCL-110). The procedure:
as §3, §4, §5

Data set [6] relates to MRSA. It counts as cell-based, methicillin-resistant S. aureus (MRSA, ATCC #43300). The settings on record: 24 h. The procedure: as §2, with “The bacteria culture was adjusted to an optical density at 562 nm (OD562) to about 0.52 (10^9 cells/mL), and the resulting bacteria suspension was subsequently diluted to about 10^6 colony forming units (CFU) per mL in each sample. The control samples were bacteria incubated in TSB media without peptides.” left out
The minimum inhibitory concentration (MIC) of ACA-PA was tested against drug-resistant bacteria and compared with conventional penicillin-streptomycin (10,000 U/mL, Thermo Fisher Scientific, Waltham, MA, USA) as well. […] The OD562 was measured at the end of treatment. […]

With `CCCCCCCCCCCCCCCC(=O)N[C@H](C(=O)N[C@H](C(=O)N[C@H](C(=O)N[C@H](C(=O)N[C@@H](CCCCN)C(=O)N[C@@H](CCCCN)C(=O)N[C@@H](CCCCN)C(=O)N[C@@H](CCCCN)C(=O)NCC(=O)N[C@@H](C)C(=O)N[C@@H](CCCCN)C(=O)N[C@@H](CCCCN)C(=O)N[C@@H](C)C(=O)N[C@@H](CCCNC(=N)N)C(=O)N[C@@H](C)C(=O)N[C@@H](C)C(=O)N[C@@H](CCCCN)C(=O)N[C@@H](CCCCN)C(=O)N[C@@H](C)C(=O)N[C@@H](CCCNC(=N)N)C(=O)N[C@@H](C)C(=O)O)C(C)C)C(C)C)C(C)C)C(C)C` [ACA-PA, C16-V4K4G(AKKARA)2 (SEQ ID NO: 7)] (Palmitoyl-VVVVKKKKGAKKARAAKKARA-OH; N-terminus and C-terminus assumed), the bacterial growth inhibition entry in data set [1] (20 to 100 μM, 20 h) is “remarkably inhibited the proliferation”; in data set [1] (concentrations lower than the CMC), “did not significantly inhibit bacterial growth”; in data set [3] (20 to 100 μM, 20 h) it was “remarkably inhibited the proliferation”. For the same molecule, the bacterial proliferation result in data set [1] (concentrations higher than the CMC (60 μM to 100 μM)) is listed as “significantly suppressed”. The bacterial growth entry in data set [1] (over 80 μM) is listed as “no bacteria growth was observed”. For the same molecule, the entries for the “bacterial viability (live/dead staining)” value in data set [2] (40 μM) and in data set [2] (80 μM) were “unable to induce considerable cell mortality” and “enhanced the number of dead bacteria drastically”, respectively. Also, the “delay of time to exponential growth phase” value in data set [3] (100 μM) is “about 18 h”. Also, the “susceptibility of bacterial growth” value in data set [3] (below the CMC) is given as “susceptible”. Further, the cytotoxicity entry in data set [4] was “moderate cytotoxicity”. The viability at 24 h, 100 µM in data set [5] is greater than 50%. Moreover, in data set [6], the “Minimum inhibitory concentration (MIC)” value stood at 300 µg/mL (≈ 121 µM).
